PMC9861386, “N-Heterocyclic Carbene-Iridium Complexes as Photosensitizers for In Vitro Photodynamic Therapy to Trigger Non-Apoptotic Cell Death in Cancer Cells” (Molecules, 2023)
Where two headings read alike, the source gives them in different places.

Assays:
[1] = Photophysical measurements (emission, quantum yield, lifetime) in CH2Cl2; assay type: physicochemical; details: for τ1 excited-state lifetime: CH2Cl2; for ΦPL emission quantum yield: CH2Cl2, 298 K, references POPOP and quinine sulfate
Excerpt: All complexes have been photophysically investigated at standard pressure in CH2Cl2 at 298 K. The absorption spectra of complexes 4a to 4g in CH2Cl2 at 298 K are shown in Figure 7. The strong absorption bands below 300 nm correspond to spin-allowed ^1π→π* electronic ligand-centered (LC) transitions. The structureless bands at 300–360 nm are attributed to ppy-to-ppy ^1π→π* […] charge transfer (LLCT) and Ir-to-ppy metal-to-ligand charge transfer (MLCT) transitions. The lowest-lying bands in the visible region can be assigned to both singlet and triplet MLCT transitions. No significant difference in the absorption spectra of complexes 4a to 4g can be found in the CH2Cl2 solution.
The luminescence spectra of complexes 4a to 4f in CH2Cl2 at 298 K are shown in Figure 8 and their photophysical data are summarized in Table 1.
The relative emission quantum yields (ΦPL) of these complexes in CH2Cl2 at room temperature were measured by using POPOP and quinine sulfate in 1 N H2SO4 as standard references (ΦPL = 97% and ΦPL = 54%, respectively). […] In addition, the excited-state lifetimes of complexes 4a to 4d are in the range of 166.4–190.7 ns, indicating the phosphorescence nature of the emissions.
UV/Vis absorption spectra were recorded at RT on solutions contained in quartz cuvettes (optical pathlength 1 cm, Hellma® (HELLMA, Müllheim, Germany)) with a PerkinElmer® (PerkinElmer, Waltham, MA, USA) UV/VIS/NIR spectrophotometer Lambda 950 and a PerkinElmer® detector UV/VIS/NIR Accessory 2D Detector Module.
Fluorescence and phosphorescence emission spectra were obtained with a HORIBA JOBIN YVON (Bensheim, Germany) fluromax-4 and spectrofluorometer.
Luminescence quantum yields were measured according to the method of Demas and Crosby, on solution samples at RT. The quantum yield is defined as: ΦS=ΦR*As/Ar* ηs/ηr^2^2 where ΦS is the quantum yield of the sample, ΦR is the known quantum yield of the reference standard at the area subtended by the emission band (on a wavelength scale) and η is the refractive index of the solvent used for the preparation of the solution. As (related to the sample) and Ar (related to the reference) must be excitation wavelength. Different standards were selected depending on the spectral region of the interest: POPOP in hexane (Φ = 97%) and QUININNE in water (Φ = 54%).
Fluorescence lifetime measurements were performed by an Edinburgh FLS920 spectrofluorometer equipped with a TCC900 card for data acquisition in time-correlated single-photon counting experiments (0.5 ns time resolution) with a D2 lamp and an LDH-P-C-405 pulsed diode laser. The estimated experimental error was 2 nm on the band maximum (5% on the lifetime, 10% on the fluorescence quantum yield).

[2] = test system: panel of five cancer cell lines (T24, PC-3, MCF7, A549, HeLa); test: MTT cell viability, 72 h, pooled over the cancer cell panel; assay type: cell-based, human; details: for Average SI vs MC3T3, Blue light: GI50 MC3T3 / GI50 of all irradiated cancer cell lines; for Average SI vs NIH, Blue light: GI50 NIH-3T3 / GI50 of all irradiated cancer cell lines
Method: (§1) For all biology experiments, the compounds were solubilized in DMSO to reach a final fixed concentration equal to 0.1% v/v to avoid cytotoxicity caused by DMSO [89]. The results are normalized to controls (0.1% v/v DMSO). Depending on the cell type, approximatively 1000 to 10,000 cells/cm^2 were seeded in 48-well plates for MTT, ATP and GSH assays and 60 mm Petri dishes for Western blots. Cells were allowed to attach overnight and then incubated for 4 h with the different complexes (in the dark), then irradiated for 10 min, followed by an incubation in the dark up to 72 h.
(§2) Irradiation was conducted using an in-house device: a series of blue light LEDs selected according to the absorption spectra of the compounds at a 458 nm wavelength with an emitted power of 9.6 watts. The absorbed energy, or irradiance, was measured at 458 nm with a Thorlabs Optical Power Meter PM100A at 5 and 10 cm distance between the cell layer and the light source and expressed as mW/cm^2.
(§3) A tetrazolium-based MTT reagent (3-(4,5-dimethylthiazol-2-yl)-2,5-diphenyltetrazolium bromide) was used to determine cell viability, as previously described. After 72 h of treatment at 37 °C and 5% CO2, cells were incubated with 25 μL MTT solution (5 mg/mL; Sigma-Aldrich) for 4 h. After solubilization with 500 μL of lysis buffer (DMSO), formazan was quantified by spectrophotometry with a microplate reader at 570 nm absorbance (ClarioSTAR, BMG LabTech, Champigny-sur-Marne, France). GI50 values corresponding to the concentration that caused 50% inhibition of cell proliferation were calculated from dose–response curves obtained by nonlinear regression analysis. All results were calculated from data obtained in at least three independent experiments.

[3] = test system: NIH-3T3 fibroblasts; test: MTT cell viability, 72 h, dark or 458 nm irradiation; assay type: cell-based, murine; details: for GI50: 72 h, MTT; for PI NIH-3T3: GI50 non-irradiated / GI50 irradiated
Method: as §1, §2, §3

[4] = test system: MC3T3 osteoblasts; test: as above; assay type: cell-based, murine
Method: as §1, §2, §3

[5] = 458 nm irradiation 10 min, read-out: GI50 NIH-3T3 Blue
[6] = dark, read-out: GI50 NIH-3T3 Dark
[7] = 458 nm irradiation 10 min, read-out: GI50 MC3T3 Blue
[8] = dark, read-out: GI50 MC3T3 Dark

Row | SMILES | τ1 excited-state lifetime [1] [ns] | ΦPL emission quantum yield [1] [%] | Average SI vs MC3T3, Blue light [2] | Average SI vs NIH, Blue light [2] | GI50 [3, 5] [µM] | PI NIH-3T3 [3] | GI50 [3, 6] [µM] | GI50 [4, 7] [µM] | GI50 [4, 8] [µM]
1 | CSc1ccc(-[n+]2ccn3[c]2[Ir-3]24([c]5ccccc5-c5cccc[n+]52)([c]2ccccc2-c2cccc[n+]24)[c]2n(cc[n+]2-c2ccc(SC)cc2)C3)cc1.F[P-](F)(F)(F)(F)F [Complex 4d] | 167 | 1.1 | 8.6 | 13.2 | 2.78 | 0.8 | 2.33 | 1.8 | 2.08
2 | CC(C)[n+]1ccn2[c]1[Ir-3]13([c]4ccccc4-c4cccc[n+]41)([c]1ccccc1-c1cccc[n+]13)[c]1n(cc[n+]1C(C)C)C2.F[P-](F)(F)(F)(F)F [Complex 4a] | 191 | 1.2 | – | – | 2.79 | 1.3 | 3.67 | 1.74 | 2.46
3 | CC(C)C[n+]1ccn2[c]1[Ir-3]13([c]4ccccc4-c4cccc[n+]41)([c]1ccccc1-c1cccc[n+]13)[c]1n(cc[n+]1CC(C)C)C2.F[P-](F)(F)(F)(F)F [Complex 4b] | 166 | 1.6 | 8.3 | 18 | 1.52 | 1.3 | 1.95 | 0.704 | 0.979
4 | F[P-](F)(F)(F)(F)F.c1ccc(C[n+]2ccn3[c]2[Ir-3]24([c]5ccccc5-c5cccc[n+]52)([c]2ccccc2-c2cccc[n+]24)[c]2n(cc[n+]2Cc2ccccc2)C3)cc1 [Complex 4c] | 180 | 1.6 | 12.1 | 24.3 | 2.67 | 1.0 | 2.73 | 1.33 | 1.16
